# Legend:
# [1] = test system: human microvascular pericytes (PC); test: Long-term (28 day) differentiation of PC on glass coverslips: matrix deposition, fibrotic lesions, α-SMA and vimentin; format: cell-based; settings: for increase in the formation of lesions compared with nonactivated control: glass
# Method: Human microvascular PC were isolated from a readily available and nearly inexhaustible source, human placental tissue, by microvascular segment explant outgrowth (Sava et al., Microcirculation, 2015, 22:54-67; Ayres-Sander et al., PLoS One, 2013, 8:e60025; Lauridsen et al., FASEB, 2014, 28:1166-1180; Maier et al., Microcirculation, 2010, 17:367-380). Human placental tissue was segmented, digested with collagenase, and the resulting cells were cultured in M199 (Gibco, Grand Island, NY, USA) medium supplemented with 20% FBS (Hyclone Laboratories, Logan, Utah, USA), and 1% penicillin-streptomycin (Gibco). Isolated pericytes were screened by flow cytometry against NG2 (H-300, Santa Cruz Biotechnology), CD90 (K-15, Santa Cruz), CD146 (P1H12, Biolegend, San Diego, Calif., USA), PDGFR-β (18A2, Santa Cruz), α-SMA (1A4, Santa Cruz), SMMHC (N-16, Santa Cruz), CD31 (C20, Santa Cruz), CD34 (581, Sigma) and CD45 (MEM-28, Sigma). As negative control, PC were incubated with isotype matched IgG. Samples were run on a Stratedigm S1000EXi Flow Cytometer (Stratedigm, San Jose, Calif. USA) and analyzed with FlowJo software (Tree Star, Ashland, Oreg., USA).
# For short term (7 day) differentiation studies, PC (passage 3-7) were seeded on healthy or IPF lung tissue slices, polyacrylamide hydrogels, or 25 mm glass coverslips (VWR) at 100×10^3 cells per sample and activated with control media (non-activated), or 1 ng/mL TGF-β1 (PeproTech, Rocky Hill, N.J., USA) for 7 days (18, 19). For bleomycin activation, the cells were activated with 1 μg/mL bleomycin sulfate (Cayman Chemical, Ann Arbor, Mich.) for 1 day and the media was replaced with non-activated media for the remaining 6 days (Sava et al., Microcirculation, 2015, 22:54-67; Sterling et al., J Bio Chem, 1983, 258:14438-14444). TGF-β1 and bleomycin concentrations were based on reports consistent with activation of fibroblasts (Sava et al., Microcirculation, 2015, 22:54-67; Maroni and Davis, Bio Reprod, 2012, 87:127). Treatment with CCG-1423 (Sigma) was performed at day 0 for the full 7 days, and labeled as early treatment, or at day 7 and performed for 7 days, and labeled as late treatment. For long-term (28 day) differentiation studies, PC were cultured on 25 mm glass coverslips (VWR) or normal lung sections and the cell media was supplemented with 100 μM ascorbic acid (Spectrum Chemicals, New Brunswick, N.J., USA) to induce matrix deposition. Activation was performed with control media (non-activated), or 1 ng/mL TGF-β1. The media was replaced 3 times a week for 4 consecutive weeks (28 days) in order to mimic the chronic conditions present during fibrosis (Moeller et al., Int J Biochem Cell Biol, 2008, 40:362-382; Sava et al., Microcirculation, 2015, 22:54-67). Treatment with nintedanib (Santa Cruz) was performed at day 21 for the remaining 7 days, and labeled as early treatment, or at day 28 and performed for 2 days, and labeled as late treatment. Concentrations of CCG-1423 (1.0 nM), and nintedanib (1.0 nM) are based on therapeutic dose in studies performed on myofibroblasts (Evelyn et al., Mol Cancer Ther, 2007, 6:2249-2260, Hostettler et al., Resp Res, 2014, 15:157; Conte et al., Eur J Pharm Sci, 2014, 58:13-19; Shi et al., PLoS One, 2011, 6:e28134).
# Pericyte pro-fibrotic activation/transition/phenotype was evaluated by positive staining for α-smooth muscle actin (SMA) using anti-α-SMA (1A4, Santa Cruz) and anti-vimentin (V630, Sigma). For matrix composition analysis, the coverslips were stained with anti-collagen I (ab233446, Abcam, Cambridge, Mass., USA), anti-laminin (Clone ab11575, Abcam), anti-collagen IV (Clone C1926, Sigma), or anti-fibronectin (Clone F3648, Sigma) antibodies.
# [2] = test system: human microvascular pericytes (PC); test: ELISA of MMPs in supernatant of TGF-β1-activated PC with or without nintedanib; format: cell-based; settings: nintedanib versus TGF-β1 alone
# [3] = test system: idiopathic pulmonary fibrosis patients; settings: IPF patients; cited from earlier work
# [4] = test system: cultured lung fibroblasts; settings: cultured lung fibroblasts in vitro; cited from earlier work
# [5] = nintedanib 7 days, TGF-β1-activated PC on glass, flow cytometry
Molecule,"expression of vimentin [1, 5]","expression of α-SMA [1, 5]","fibrotic node formation ([1]; nintedanib 7 days, TGF-β1-activated PC on glass, versus TGF-β1)","fibronectin ([1]; nintedanib 7 days, TGF-β1-activated PC on glass, versus TGF-β1, immunoblotting, P=0.002)","collagen I ([1]; nintedanib 7 days, TGF-β1-activated PC on glass, versus TGF-β1, immunoblotting, P=0.01)",expression of MMP10 [2],MMP13 in supernatant ([2]; P<0.001),MMP9 in supernatant ([2]; P<0.01),MMP8 in supernatant ([2]; P<0.05),decline in forced vital capacity [3],TGF-β1-induced myofibroblast differentiation and matrix deposition [4],"increase in the formation of lesions compared with nonactivated control ([1]; day 14 of TGF-β1 exposure, P<0.001) [fold]","increase in the formation of lesions compared with nonactivated control ([1]; day 28 of TGF-β1 exposure, P<0.01) [fold]","vimentin expression compared with nonactivated control ([1]; long-term TGF-β1 activation on glass, P<0.0001)","α-SMA expression compared with nonactivated control ([1]; long-term TGF-β1 activation on glass, P=0.011)"
COC(=O)c1ccc2c(c1)NC(=O)/C2=C(\Nc1ccc(N(C)C(=O)CN2CCN(C)CC2)cc1)c1ccccc1 [nintedanib],without affecting,without affecting,reduced,reduced,reduced,did not increase,substantial increases,substantial increases,substantial increases,reducing the decline in forced vital capacity,oppose,–,–,–,–
"TGF-β1: transforming growth factor (TGF)-β1, fibrotic activator, used at 1 ng/mL",–,–,–,–,–,–,–,–,–,–,–,2.2,1.8,significant increase,significant increase

# Source: patent publication US20180298344A1, “Realistic Humanized Model of Disease Matrix Environment for Evaluation of Therapeutic Reversal or Cell Fate” (Yale University, priority 2017, published 2018)
